Assay results from patent publication US9642922B2, “Caspase-triggered nano-aggregation probes and methods of use” (The Board of Trustees of the Leland Stanford Junior …, priority 2013, dated 2017).
Numbered stars: 1 amine (or outer) side, 2 acyl side, 3 side chain; on linkers, the order of the positions; unused ones are H or OH. Square brackets hold non-standard residues; d marks the D form. Peptide text beside a SMILES is read from it. * marks the point of attachment. DOTA = O=C(O)CN1CCN(CC(=O)O)CCN(CC(=O)*)CCN(CC(=O)O)CC1; X1 = O=C(C1CSC(c2nc3ccc(N[*:1])cc3s2)=N1)[*:2]; X2 = N#Cc1ccc2cc(OCCCN*)ccc2n1; SEt = CCS*

Columns and labels:
cathepsin B = molecular target: T1, cathepsin B (Homo sapiens, UniProt P07858); assay: HPLC enzyme specificity assay of C-SNAF, cathepsin B; format: biochemical; details: 25 μM probe, 0.735 μg/ml enzyme, pH 5.5
T1 construct: Cathepsin B (human liver; 0.27 U; 7.35×10^−4 mg, Calbiochem); purchased Calbiochem; host or cells: human liver (tissue-derived)
Experimental: The specificity of C-SNAF towards other representative cysteine proteases such as caspase-7, caspase-9, cathepsin B, and legumain was examined.
Caspase (human, recombinant from E. coli) assays were performed for caspase-3 (4.9×10^−3 U; 7.35×10^−4 mg, Sigma), −7 (18.3 U; 7.35×10^−4 mg, Calbiochem), and −9 (0.3 U; 7.35×10^−4 mg, Calbiochem). All caspase assays were conducted in caspase buffer with 50 mM HEPES, 100 mM NaCl, 1 mM EDTA, 10 mM TCEP, 10% glycerol, and 0.1% CHAPS at pH 7.4. Cathepsin B (human liver; 0.27 U; 7.35×10^−4 mg, Calbiochem) and Legumain (human, recombinant from mouse myeloma cell line; >250 pmol/min/μg; 7.35×10^−4 mg, R&D Systems) were conducted in reaction buffer with 50 mM sodium acetate, 50 mM NaCl, 0.5 mM EDTA and 10 mM TCEP at pH 5.5. C-SNAF was diluted in the respective enzyme reaction buffer (25 μM, 1 mL) and remained at room temperature for 10 min, to which was then added the respective enzymes. Reactions were performed at 37° C., and monitored by HPLC hourly. The percentage conversion of the reaction was calculated based on the percentage of peak area of C-SNAF-cycl in the HPLC trace at 675 nm UV detection, which indicated the efficacy of enzyme cleavage of C-SNAF.

[1] = system: STS-induced apoptotic HeLa cells; assay: Flow cytometry of STS-induced apoptotic HeLa cells labeled with probes; format: cell-based, human
Experimental: Approximately 10^5 HeLa cells in 1 mL DMEM medium were seeded onto 12-well plates. […] For the inhibitor blocking experiment, the STS-treated cells were first incubated with the caspase inhibitor Z-VAD-fmk (50 μM, R&D Systems) for 30 min, and then 2 μM C-SNAF was added. All cells incubations were 24 h, followed by staining with FLICA (FAM) after trypsinization. After washing with PBS (1×) three times, the cell pellets were resuspended in 300 μL PBS and applied for flow cytometry analysis using the FITC and Cy5.5 channels. The cell number for each flow cytometry analysis was approximately 5000 to 10000, and the data was processed using FlowJo software.

apoptotic HeLa cells = assay: Epifluorescence microscopy of apoptotic HeLa cells labeled with probes; format: cell-based, human
Experimental: After removal of the medium, the cells were incubated with C-SNAF, L-ctrl, or D-ctrl at 2 μM for 24 h. Some cells were first incubated with caspase inhibitor (Z-VAD-fmk, 50 μM) for 30 min, followed by incubating with 2 μM C-SNAF for 24 h. The cells were carefully washed with PBS (1×) three times, and stained with Hoechst 33342 (2 μM) at 37° C. for 30 min. After rinses with PBS (1×) several times, the medium was replaced and the fluorescence images were acquired with DAPI and Cy5.5 filters. The images were processed using the standard CRi Nuance software, analyzed using Image J software package (NIH), and presented at the same intensity scale for comparison.
HeLa cells in #1.5 borosilicate 8-well chambered coverslips (Nunc) were either incubated with C-SNAF (2 μM) alone or co-incubated with DOX (1, 2, and 5 μM) and 2 μM C-SNAF, 2 μM C-SNAF together with caspase inhibitor (Z-VAD-fmk, 50 μM), or control probes D-ctrl and L-ctrl at 2 μM for 24 h. Then the medium was removed, the cells were carefully washed with PBS (1×) three times, and stained with nuclear binding probe Hoechst 33342 (2 μM) at 37° C. for 30 min. After several rinses with PBS (1×), the medium was replaced and the fluorescence images were acquired with DAPI and […] filters.

caspase-3/7 = assay: HPLC analysis of C-SNAF reaction in apoptotic cell lysates; format: biochemical, human; details: 5 μM, lysate of STS- and DOX-induced apoptotic HeLa or MDA-MB-231 cells
Experimental: To confirm the formation of the caspase-3/7-triggered intramolecular cyclization product C-SNAF-cycl in apoptotic cells, C-SNAF (5 μM) was incubated with both cell lysates and whole cells, and the products were analyzed by HPLC. […] However, more than 90% of C-SNAF was converted to C-SNAF-cycl in the lysate of STS- and DOX-induced apoptotic HeLa (FIG. 12A) or MDA-MB-231 cells, indicating the efficient intramolecular condensation initiated by caspase-3/7 in a complex cellular environment.
The culture medium was carefully removed and the cells were washed with cold 1×PBS. The cells were trypsinized to form cell pellets, and RIPA (RadioImmuno Precipitation Assay, sigma) buffer was added to cells using 100 μL of buffer per 4×10^6 cells. Then the cells were kept on ice for 0.5 h. The cell lysate was gathered, centrifuged at 14,000×g for 15 min at 4° C. The supernatant of the cell lysate was collected, and the caspase-3/7 activity in the lysate was determined by CASPASE-GLO® 3/7 assay. The cell lysate was diluted with caspase reaction buffer (2×, 1:1 diluted), and incubated with C-SNAF (5 μM) at 37° C. overnight and then injected into an HPLC system (Dionex) for analysis.

[2] = Blood circulation and elimination in healthy nude mice; details: 5 nmol i.v.
caspase-3 = molecular target: T2, caspase-3 (Homo sapiens, UniProt P42574); assay: HPLC assay of caspase-3-triggered cyclization of MRI probe 15; format: biochemical; set-up: purchased Sigma; host or cells: E. coli; details: 200 μM probe, caspase-3 50 nM, 5 h
T2 sequence (P42574 29-175 limits assumed): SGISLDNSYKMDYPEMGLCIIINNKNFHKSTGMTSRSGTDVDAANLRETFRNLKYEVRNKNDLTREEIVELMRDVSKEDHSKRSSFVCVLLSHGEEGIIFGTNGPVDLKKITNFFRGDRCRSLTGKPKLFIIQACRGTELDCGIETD
T2 sequence (P42574 176-277 limits assumed): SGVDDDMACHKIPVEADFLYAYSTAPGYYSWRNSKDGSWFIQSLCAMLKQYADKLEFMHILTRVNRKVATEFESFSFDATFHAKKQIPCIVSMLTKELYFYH
Experimental: The progression of caspase-3-triggered intramolecular cyclization of probe 15 in solution was investigated by incubation (200 μM) with recombinant human caspase-3 (50 nM) using high-performance liquid chromatography (HPLC). […] More than 90% of probe 15 and its disulfide bond reduced intermediates could be converted after 5 h (FIG. 27B).

Compound | activation by cathepsin B (cathepsin B) | labeling of FLICA-positive apoptotic cells ([1]; 2 μM probe, STS-induced apoptotic HeLa) | increase in Cy5.5 fluorescence of apoptotic relative to viable cells ([1]; 2 μM probe, STS-treated HeLa, flow cytometry) [fold] | effect of caspase inhibitor Z-VAD-fmk on the increased fluorescence ([1]; Z-VAD-fmk 50 μM) | cell labeling efficiency (apoptotic HeLa cells; DOX 1 μM) [%] | cell labeling efficiency (apoptotic HeLa cells; DOX 5 μM) [%] | enhancement in cell labeling efficiency (apoptotic HeLa cells; DOX 1 to 5 μM) | cell labeling efficiency (apoptotic HeLa cells; STS 0.5 μM) [%] | cell labeling efficiency (apoptotic HeLa cells; STS 2 μM) [%] | enhancement in cell labeling efficiency (apoptotic HeLa cells; STS 0.5 to 2 μM) | C-SNAF converted to C-SNAF-cycl in lysate (caspase-3/7) | blood half-life [2] [h] | time of nearly complete elimination after administration [2] [h] | probe and disulfide-reduced intermediates converted to cyclized products (caspase-3)
CCSSC[C@@H](NC(=O)[C@H](CC(=O)O)NC(=O)[C@@H](NC(=O)[C@H](CCC(=O)O)NC(=O)[C@H](CC(=O)O)NC(C)=O)C(C)C)C(=O)N[C@@H](CCCCNC(=O)CCCCCN1C(=CC=CC=CC2=[N+](CC)c3ccc4c(S(=O)(=O)[O-])cc(S(=O)(=O)O)cc4c3C2(C)C)C(C)(C)c2c1ccc1c(S(=O)(=O)O)cc(S(=O)(=O)O)cc21)C(=O)Nc1ccc2nc(C3=N[C@@H](C(=O)NCCCOc4ccc5nc(C#N)ccc5c4)CS3)sc2c1 [C-SNAF] | neither lysosomal cysteine proteases cathepsin B nor legumain could significantly activate | efficiently labeled | ~13 | inhibited by Z-VAD-fmk | 9 | 92 | approximately 10 fold | 23 | 90 | approximately 4 fold | more than 90% | 1.0 ± 0.45 | ≤ 12 | –
CCSSCC(NC(=O)C(CC(=O)O)NC(=O)C(NC(=O)C(CCC(=O)O)NC(=O)C(CC(=O)O)NC(C)=O)C(C)C)C(=O)NC(CCCCNC(=O)CN1CCN(CC(=O)[O-])CCN(CC(=O)[O-])CCN(CC(=O)[O-])CC1)C(=O)Nc1ccc2nc(C3=NC(C(=O)NCCCOc4ccc5nc(C#N)ccc5c4)CS3)sc2c1.[Gd+3] (centres unmarked) [probe 15] (Ac-DEVDC(SEt)K(DOTA)[X1]-X2; configuration not given here) | – | – | – | – | – | – | – | – | – | – | – | – | – | More than 90%
